Data published in patent US5863937A, “Pharmaceutical compositions” (BTG International Limited, priority 1993, dated 1999).
In brackets after ≈: the same amount, converted by molar mass.

Legend:
Assay in all cases: MIC, broth serial dilution in liquid YNB medium
[1] = tested on: C. albicans 2043; format: cell-based, Candida albicans; conditions: YNB-Difco medium, 200 μg/ml sodium glutamate, 10^5 cells/ml, 30° C., 24 hours
Method: (§1) The minimum inhibiting concentrations (MIC) in mg/ml were determined for the compounds of Examples 1, 2, 7, 8, 12 and 13 against various Candida sp. using the broth serial dilution method of Milewski et al., Drugs Exp. Clin. Res., 1988, 14, 461. A liquid Yeast Nitrogen Base (YNB)-Difco medium containing 200 μg/ml sodium glutamate was used with a content of 10^5 cells/ml at a temperature of 30° C. and with an incubation time of 24 hours.

[2] = tested on: C. glabrata; format: cell-based, Candida glabrata; conditions: YNB-Difco medium, 200 μg/ml sodium glutamate, 10^5 cells/ml, 30° C., 24 hours
Method: as §1

[3] = tested on: C. albicans ATTC 26278; format: cell-based, Candida albicans; conditions: 30° C., 24 hours; for minimum inhibiting concentration (MIC), C. albicans ATTC 26278: YNB-Difco medium, 200 μg/ml sodium glutamate, 10^5 cells/ml; for minimum inhibiting concentration (MIC) against Candida albicans ATCC 26278: liquid YNB medium, monosodium glutamate 200 μg/ml
Method: The antifungal activity of the compounds has been determined by the serial dilution method in a liquid YNB (Yeast Nitrogen Base) medium containing monosodium glutamate at a concentration of 200 μg/ml, with a temperature of 30° C. and an incubation time of 24 hours.
as §1

[4] = tested on: C. krusei; format: cell-based, Candida krusei; conditions: YNB-Difco medium, 200 μg/ml sodium glutamate, 10^5 cells/ml, 30° C., 24 hours
Method: as §1

[5] = tested on: C. famata 1940; format: cell-based, Candida famata; conditions: YNB-Difco medium, 200 μg/ml sodium glutamate, 10^5 cells/ml, 30° C., 24 hours
Method: as §1

[6] = listed as N^2 -L-norvalyl-N^3-trans-2,3-epoxysuccinamoyl-L-2,3-diaminopropanoic acid in th

| SMILES | minimum inhibiting concentration (MIC), C. albicans 2043 [1] [µg/mL] | minimum inhibiting concentration (MIC), C. glabrata [2] [µg/mL] | minimum inhibiting concentration (MIC), C. albicans ATTC 26278 [3] [µg/mL] | minimum inhibiting concentration (MIC) against Candida albicans ATCC 26278 [3] [µg/mL] | minimum inhibiting concentration (MIC), C. krusei [4] [µg/mL] | minimum inhibiting concentration (MIC), C. famata 1940 [5] [µg/mL] | minimum inhibiting concentration (MIC) against Candida albicans ATCC 26278 [3, 6] [µg/mL] |
| --- | --- | --- | --- | --- | --- | --- | --- |
| CCC[C@H](NC(=O)[C@@H](N)CNC(=O)[C@@H]1O[C@H]1C(N)=O)C(=O)O (racemic) [DL--EADP--Nva, N^3 -DL-trans-2,3-Epoxysuccinamoyl-L-2,3-diaminopropionyl-L-norvaline] | 750 (≈ 2370 µM) | 1250 (≈ 3950 µM) | 500 (≈ 1580 µM) | – | 1000 (≈ 3160 µM) | 750 (≈ 2370 µM) | – |
| CCC[C@H](NC(=O)[C@@H](N)CCCCN)C(=O)N[C@@H](CNC(=O)[C@@H]1O[C@H]1C(N)=O)C(=O)O (racemic) [Lys--Nva--DL--EADP, N^2 -L-Lysyl-L-norvalyl-N^3 -DL-trans-2,3-epoxysuccinamoyl-L-2,3-diaminopropanoic acid] | 500 (≈ 1120 µM) | 750 (≈ 1690 µM) | 500 (≈ 1120 µM) | – | 1500 (≈ 3370 µM) | 1000 (≈ 2250 µM) | – |
| CCC[C@H](N)C(=O)N[C@@H](CNC(=O)[C@@H]1O[C@H]1C(N)=O)C(=O)O (racemic) [Nva--DL--EADP, N^2 -L-Norvalyl-N^3 -DL-trans-2,3-epoxysuccinamoyl-L-2,3-diaminopropanoic acid] | 250 (≈ 790 µM) | 750 (≈ 2370 µM) | 250 (≈ 790 µM) | – | 350 (≈ 1110 µM) | 500 (≈ 1580 µM) | 0.25 (≈ 0.79 µM) |
| CCC[C@H](NC(=O)[C@@H](N)CNC(=O)[C@@H]1O[C@H]1C(N)=O)C(=O)O (relative stereo) [EADP--Nva, N^3 -D-trans-2,3-Epoxysuccinamoyl-L-2,3-diaminopropionyl-L-norvaline] | 500 (≈ 1580 µM) | 1000 (≈ 3160 µM) | 400 (≈ 1260 µM) | – | 800 (≈ 2530 µM) | 500 (≈ 1580 µM) | – |

Continued, values first:

| minimum inhibiting concentration (MIC), C. albicans 2043 [1] [µg/mL] | minimum inhibiting concentration (MIC), C. glabrata [2] [µg/mL] | minimum inhibiting concentration (MIC), C. albicans ATTC 26278 [3] [µg/mL] | minimum inhibiting concentration (MIC) against Candida albicans ATCC 26278 [3] [µg/mL] | minimum inhibiting concentration (MIC), C. krusei [4] [µg/mL] | minimum inhibiting concentration (MIC), C. famata 1940 [5] [µg/mL] | minimum inhibiting concentration (MIC) against Candida albicans ATCC 26278 [3, 6] [µg/mL] | SMILES |
| --- | --- | --- | --- | --- | --- | --- | --- |
| 1000 (≈ 3470 µM) | 1500 (≈ 5200 µM) | 1200 (≈ 4160 µM) | 1.2 (≈ 4.16 µM) | – | – | – | C[C@H](N)C(=O)N[C@@H](CNC(=O)[C@@H]1O[C@H]1C(N)=O)C(=O)O (racemic) [Ala--DL--EADP, N^2 -L-alanyl-N^3 -DL-trans-2,3-epoxysuccinamoyl-L-2,3-diaminopropanoic acid, reference compound] |
| 250 (≈ 562 µM) | 500 (≈ 1120 µM) | 200 (≈ 450 µM) | – | 750 (≈ 1690 µM) | 500 (≈ 1120 µM) | – | CCC[C@H](NC(=O)[C@@H](N)CCCCN)C(=O)N[C@@H](CNC(=O)[C@@H]1O[C@H]1C(N)=O)C(=O)O (relative stereo) [Lys--Nva--EADP, N^2 -L-Lysyl-L-norvalyl-N^3 -D-trans-2,3-epoxysuccinamoyl-L-2,3-diaminopropanoic acid] |
| 100 (≈ 316 µM) | 500 (≈ 1580 µM) | 150 (≈ 474 µM) | – | 350 (≈ 1110 µM) | 350 (≈ 1110 µM) | 0.15 (≈ 0.474 µM) | CCC[C@H](N)C(=O)N[C@@H](CNC(=O)[C@@H]1O[C@H]1C(N)=O)C(=O)O (relative stereo) [Nva--EADP, N^2 -L-Norvalyl-N^3 -D-trans-2,3-epoxysuccinamoyl-L-2,3-diaminopropanoic acid] |
